Like-named read-outs stand apart in the source and are kept apart here.
Experiments:
TpMglB-2 [1] = molecular target: T1, TpMglB-2 (Treponema pallidum, UniProt Q08255); assay: Differential scanning fluorimetry (DSF) carbon-source screen; format: binding; conditions: for shift in Tm, app: 10 μM protein, BIOLOG compounds, vs water control; for binding in the DSF assay: qualitative
T1 construct: the DNA fragment encoding amino acid residues 11–378 (cloned without the post-translationally modified N-terminal Cys); made in house; host or cells: E. coli BL21 AI (co-transformed with pGroESL)
Description: The unconventional structural organization and the altered Ca^2+-binding site of TpMglB-2 provoked a question: does such a structurally rearranged LBP function similarly to other LBPs? To address this question, we first examined ligand binding. In a previous study on TpMglB-2, we reported that the protein preferred D-glucose and D-galactose over a small number of other monsaccharide carbon sources. However, we wished to interrogate a larger panel of such sources to investigate whether another ligand would bind to the protein with even higher affinity. We thus employed differential scanning fluorimetry (DSF) as a means to probe for ligand binding. This method examines the apparent melting temperature (Tm, app) of the protein; the “apparent” nomenclature is added in recognition of the fact that the reversibility of the transition was not tested in these experiments. Presumably, in the presence of a specifically bound ligand, the protein’s structure will be stabilized, resulting in a higher Tm, app. We used this plate-based method to qualitatively assay for the binding of 190 carbon sources. Only D-glucose and D-galactose caused significant shifts (> 1.5° C) in Tm, app (Fig 5). Thus, these were the only candidate compounds that were selected for additional study.
The thermal stability of TpMglB-2 in the presence of various putative ligands was determined in a 96-well PCR-plate (Bio-Rad Laboratories, Inc., Hercules, CA). The assumption was that binding ligands would enhance the thermal stability of the protein. For carbon-source screening, Biolog's Phenotype MicroArray (PM) compounds supplied in 96-well microplates (BIOLOG, Inc., Hayward, CA) were dissolved in 50 μL of sterile water to obtain a final concentration of around 10–20 mM. Screenings were performed with plates PM1 and PM2A. Each plate contains 95 compounds and a blank (no ligand) control. The complete plate contents are available at the BIOLOG website (www.biolog.com).
Each 20 μL standard assay mixture in a 96-well PCR-plate contained 10 μM purified protein and SYPRO Orange (Life Technologies) at 5x concentration in a buffer containing 10 mM phosphate, 100 mM NaCl, pH 7.4. Two μL of the resuspended BIOLOG compounds were added to each well. The plate was sealed and placed in a BioRad CFX96 real-time PCR detector coupled to a C1000 thermal cycler (BioRad Laboratories, Inc., Hercules, CA), and the fluorescence of the dye was monitored as a function of temperature from 4° C to 95° C. Fluorescence readings were recorded every 0.5° C. The data were transformed to–dF/dT v. T curves, and the abscissas of the minima in these curves were defined as the apparent melting temperatures (Tm, app). Significant positive shifts in Tm, app were taken as positive results and were confirmed using ITC.

[2] = molecular target: T2, TpMglB-2 (Tp0684), wild-type (Treponema pallidum, UniProt Q08255); assay: Isothermal titration calorimetry (ITC) of sugars into wild-type TpMglB-2; format: binding; conditions: for binding heats in ITC control titrations: wild-type TpMglB-2, qualitative
T2 construct: the DNA fragment encoding amino acid residues 11–378 (cloned without the post-translationally modified N-terminal Cys); made in house; host or cells: E. coli BL21 AI (co-transformed with pGroESL)
Method: (§1) TpMglB-2 was dialyzed exhaustively against Assay Buffer (10 mM sodium phosphate, pH 7.4, 100 mM NaCl). The sugars to be titrated were dissolved in the same buffer. All titrations were carried out in an iTC200 calorimeter (Malvern, Malvern, UK). A typical titration scheme featured 19 or 20 2-μL injections of 500 μM of the monosaccharide into 50 μM protein in the ca. 200-μL stirred interaction cell. However, the concentrations were sometimes altered to sample a wider range of concentration space. Three titrations were performed per sugar, and the resulting thermograms were serially integrated using NITPIC v. 1.1.7 [54, 78]. All titrations for a given sugar were globally analyzed in ITCsy[55], and confidence intervals were obtained using the error-surface projection method. All ITC illustrations were rendered in GUSSI [79].

TpMglB-2 [3] = molecular target: T1, TpMglB-2
TpMglB-2 D195A = molecular target: T3, TpMglB-2 D195A (Treponema pallidum, UniProt Q08255, D220A); assay: ITC of D-glucose into TpMglB-2 D195A variant; format: binding; set-up: key: NH: No observable heat of ligand binding
T3 construct: the DNA fragment encoding amino acid residues 11–378 (cloned without the post-translationally modified N-terminal Cys); made in house; host or cells: E. coli BL21 AI
Method: (§2) For the construction of the recombinant TpMglB-2 variants, the N19A, W145A, D195A and F313A mutation was individually introduced into the plasmid carrying the wild-type tp0684 sequence using the QuikChange site-directed mutagenesis kit (Agilent Technologies, Santa Clara, CA). The mutation was confirmed by DNA sequencing. The mutant protein was expressed and purified as described above. Protein concentrations were determined in buffer A (20 mM Hepes, 0.1 M NaCl, pH 7.5, 2 mM n-Octyl-β-D-glucopyranoside) using spectrophotometry. Extinction coefficients were calculated using the Protparam tool of ExPASy (www.expasy.org).
as §1, with “All ITC illustrations were rendered in GUSSI [79].” left out

TpMglB-2 W145A = molecular target: T4, TpMglB-2 W145A (Treponema pallidum, UniProt Q08255, W170A); assay: ITC of D-glucose into TpMglB-2 W145A variant; format: binding
T4 construct: the DNA fragment encoding amino acid residues 11–378 (cloned without the post-translationally modified N-terminal Cys); made in house; host or cells: E. coli BL21 AI
Method: as §2
as §1, with “All ITC illustrations were rendered in GUSSI [79].” left out

TpMglB-2 [4] = molecular target: T1, TpMglB-2; assay: Difference sedimentation velocity; conditions: for Δs/s¯: 5 mg/mL TpMglB-2, 95% confidence interval in brackets
Method: Minute sedimentation-coefficient differences are readily detected using a method pioneered in H. Schachman’s lab called “difference sedimentation velocity” [64]. This method provides a direct, side-by-side comparison of the sedimentation velocity of two macromolecular solutes. In brief, two samples of 5 mg/mL TpMglB-2 were prepared. To one sample, a non-binding sugar, either D-mannose or D-ribose (these sugars evidenced no binding in neither the DSF nor ITC assays), was introduced, whereas an identical concentration of D-glucose was added to the other. The protein sample with the non-binding sugar was placed in the reference sector of a centrifugation centerpiece, and the sample sector of the same centerpiece was filled with the D-glucose-containing protein solution. Centrifugation was initiated, and Rayleigh laser interferometry was used to monitor the sedimentation. Because this mode of data collection reports on refractive-index differences between the two sectors, the difference between the sedimentation in the two sectors is recorded. This signal (for unequal solution-column heights) will appear roughly as a Gaussian-shaped curve inverted about the radial axis (Fig 8A). If the macromolecular solutes in each sector sediment at different rates, the absolute value of the area of (or, more specifically, the normalized first moment of) this curve will increase as sedimentation continues. This trend reports on the fractional sedimentation-coefficient difference between the solutes in the reference and sample sectors, termed Δs/s¯ , i.e. the change in s normalized by the mean s-value. […]
For difference SV studies, a slightly different protocol was followed. […] Sedimentation and sedimentation differences were monitored using the interference optics only; scans were obtained every 60 s for almost 17 h.
As presented by the data-acquisition software, interference data have the amount of fringe displacement, J, on the y-axis and the radius from the center of rotation on x-axis (r). In this case, of course, the difference in fringe displacement, ΔJ, was measured. […]

TpMglB-2 F313A = molecular target: T5, TpMglB-2 F313A (Treponema pallidum, UniProt Q08255, F338A); assay: ITC of D-glucose into TpMglB-2 F313A variant; format: binding; set-up: key: NH: No observable heat of ligand binding
T5 construct: the DNA fragment encoding amino acid residues 11–378 (cloned without the post-translationally modified N-terminal Cys); made in house; host or cells: E. coli BL21 AI
Method: as §2
as §1, with “All ITC illustrations were rendered in GUSSI [79].” left out

TpMglB-2 N19A = molecular target: T6, TpMglB-2 N19A (Treponema pallidum, UniProt Q08255, N44A); assay: ITC of D-glucose into TpMglB-2 N19A variant; format: binding; set-up: key: NH: No observable heat of ligand binding
T6 construct: the DNA fragment encoding amino acid residues 11–378 (cloned without the post-translationally modified N-terminal Cys); made in house; host or cells: E. coli BL21 AI
Method: as §2
as §1, with “All ITC illustrations were rendered in GUSSI [79].” left out

TpMglB-2 [5] = molecular target: T1, TpMglB-2; assay: Sedimentation velocity analytical ultracentrifugation (conventional SV); conditions: 100 μM D-glucose, 20° C; 95% confidence interval in brackets; apo-TpMglB-2 3.212 S
Method: Our initial attempt to examine whether this small difference could be detected was conducted using conventional SV. In experiments carried out simultaneously, we sedimented apo-TpMglB-2 and also the protein in the presence of 100 μM D-glucose. By analyzing the data with a non-interacting discrete species model, we could perform a careful analysis using F-statistics that would establish realistic 95% confidence intervals (shown below in brackets) on the refined parameter s. For apo-TpMglB-2, the refined experimental s-value was 3.212 [3.204–3.219] S. The same value of the protein in the presence of D-glucose was 3.292 [3.288–3.297] S. We can estimate the statistical significance of this difference the F-statistic formalism. If we fix the s-value of the apo-protein to that of the liganded protein and repeat the analysis, we arrive at a χ^2 ratio between the two analyses of 1.86. […]
All AUC experiments were carried out at 20° C in a Beckman-Coulter Optima XL-I centrifuge (Beckman-Coulter Inc., Indianapolis, IN), and Assay Buffer was used in all cases. […] Centrifugation continued for about 16 h, and concentration-profile data were collected using both absorbance and interference optics. Data were initially analyzed using the c(s) method in SEDFIT [82, 83]. As warranted, data were also analyzed using a discrete-species model in SEDPHAT [62].

T2 sequence (Q08255 36-403): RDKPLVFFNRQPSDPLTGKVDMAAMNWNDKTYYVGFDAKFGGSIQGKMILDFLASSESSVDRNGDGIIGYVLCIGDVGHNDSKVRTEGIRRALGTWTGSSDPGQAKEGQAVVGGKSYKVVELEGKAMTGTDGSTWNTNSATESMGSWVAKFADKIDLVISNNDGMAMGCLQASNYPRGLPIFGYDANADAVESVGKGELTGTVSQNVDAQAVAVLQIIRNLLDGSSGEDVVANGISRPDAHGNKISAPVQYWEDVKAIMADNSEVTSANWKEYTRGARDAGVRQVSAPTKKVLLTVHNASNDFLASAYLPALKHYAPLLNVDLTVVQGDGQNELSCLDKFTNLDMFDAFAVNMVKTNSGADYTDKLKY
T1 sequence (Q08255 36-403): as above
T4 sequence (Q08255 36-403 W170A): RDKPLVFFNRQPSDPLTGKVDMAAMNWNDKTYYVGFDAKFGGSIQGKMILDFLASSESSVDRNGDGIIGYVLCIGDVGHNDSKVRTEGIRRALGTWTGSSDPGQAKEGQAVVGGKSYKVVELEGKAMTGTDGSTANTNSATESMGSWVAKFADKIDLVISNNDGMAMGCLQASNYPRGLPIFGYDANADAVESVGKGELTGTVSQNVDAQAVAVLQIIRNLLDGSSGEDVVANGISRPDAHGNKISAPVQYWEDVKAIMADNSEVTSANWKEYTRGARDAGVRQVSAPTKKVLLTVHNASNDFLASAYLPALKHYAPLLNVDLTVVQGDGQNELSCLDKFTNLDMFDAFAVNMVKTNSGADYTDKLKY
T5 sequence (Q08255 36-403 F338A): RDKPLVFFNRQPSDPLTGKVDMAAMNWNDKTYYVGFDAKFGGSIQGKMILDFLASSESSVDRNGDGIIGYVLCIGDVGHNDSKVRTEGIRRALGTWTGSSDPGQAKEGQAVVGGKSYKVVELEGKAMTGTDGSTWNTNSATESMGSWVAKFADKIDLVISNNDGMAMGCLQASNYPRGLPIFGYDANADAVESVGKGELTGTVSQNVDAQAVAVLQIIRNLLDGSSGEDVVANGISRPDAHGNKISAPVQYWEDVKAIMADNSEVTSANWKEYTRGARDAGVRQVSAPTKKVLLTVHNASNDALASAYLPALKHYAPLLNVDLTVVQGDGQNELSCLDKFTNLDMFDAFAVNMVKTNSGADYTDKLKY
T3 sequence (Q08255 36-403 D220A): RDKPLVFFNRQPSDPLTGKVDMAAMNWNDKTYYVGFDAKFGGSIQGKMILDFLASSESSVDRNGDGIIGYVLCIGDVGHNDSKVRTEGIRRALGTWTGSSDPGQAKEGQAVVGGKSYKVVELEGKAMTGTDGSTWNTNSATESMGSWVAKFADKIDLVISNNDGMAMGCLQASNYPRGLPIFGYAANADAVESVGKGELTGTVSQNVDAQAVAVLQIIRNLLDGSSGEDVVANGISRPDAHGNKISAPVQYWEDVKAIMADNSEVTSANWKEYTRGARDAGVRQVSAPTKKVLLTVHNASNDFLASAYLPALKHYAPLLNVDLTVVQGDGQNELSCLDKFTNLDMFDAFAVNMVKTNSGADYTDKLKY
T6 sequence (Q08255 36-403 N44A): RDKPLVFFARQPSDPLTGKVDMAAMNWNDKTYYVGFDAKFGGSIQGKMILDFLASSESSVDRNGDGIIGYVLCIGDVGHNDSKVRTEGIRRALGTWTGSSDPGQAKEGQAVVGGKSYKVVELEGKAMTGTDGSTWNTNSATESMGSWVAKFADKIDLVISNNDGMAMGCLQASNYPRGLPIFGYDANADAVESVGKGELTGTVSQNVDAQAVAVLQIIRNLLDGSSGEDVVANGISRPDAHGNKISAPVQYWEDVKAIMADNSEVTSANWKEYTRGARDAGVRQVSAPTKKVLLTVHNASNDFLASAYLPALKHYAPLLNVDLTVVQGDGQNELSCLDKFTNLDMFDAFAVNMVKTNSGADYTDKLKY

O=C[C@H](O)[C@@H](O)[C@@H](O)[C@H](O)CO [D-galactose]
shift in Tm, app (TpMglB-2 [1]): > 1.5 °C | KD for D-galactose relative to that of D-glucose ([2]; wild-type TpMglB-2): 30 fold | Kd (TpMglB-2 [3]; read-out: equilibrium dissociation constant; similar TpMglB-2 construct, 20 mM NaCl; cited from earlier work): 250 nM

OC[C@H]1OC(O)[C@@H](O)[C@@H](O)[C@@H]1O (stereo partly drawn) [D-Mannose, reference compound]
binding in the DSF assay (TpMglB-2 [1]): failed to bind | binding heats in ITC control titrations [2]: failed to exhibit any binding heats

OC[C@H]1OC(O)[C@H](O)[C@@H](O)[C@@H]1O (stereo partly drawn) [D-glucose]
KD (TpMglB-2 D195A): NH | KD for glucose binding of W145A relative to the wild-type protein (TpMglB-2 W145A): tenfold higher | Kd (TpMglB-2 W145A; W145A variant, 68.3% confidence intervals in brackets): 12700 nM | Δs/s¯ (TpMglB-2 [4]; D-glucose in sample sector vs D-mannose in reference sector): about 0.0177 [0.0163, 0.0191] | Δs/s¯ (TpMglB-2 [4]; D-glucose in sample sector vs D-ribose in reference sector): 0.0180 [0.0163, 0.0197] | observed change in s (Δs/s¯ multiplied by the observed s, 3.2 S) (TpMglB-2 [4]; D-glucose vs non-binding sugar): approximately 0.06 S | shift in Tm, app (TpMglB-2 [1]): > 1.5 °C | KD (TpMglB-2 F313A): NH | KD (TpMglB-2 N19A): NH^b | Kd ([2]; wild-type TpMglB-2, 10 mM sodium phosphate pH 7.4, 100 mM NaCl, 68.3% confidence intervals in brackets): 1100 nM | refined experimental s-value of TpMglB-2 in the presence of the sugar (TpMglB-2 [5]): 3.292 [3.288–3.297] S | Kd (TpMglB-2 [3]; similar TpMglB-2 construct, 20 mM NaCl; read-out: equilibrium dissociation constant; cited from earlier work): 150 nM

O=C[C@H](O)[C@H](O)[C@H](O)CO [D-ribose, reference compound]
binding in the DSF assay (TpMglB-2 [1]): failed to bind | binding heats in ITC control titrations [2]: failed to exhibit any binding heats
